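96-well plates; 48 h exposure; 5 concentrations. Endpoints by linear interpolation between flanking doses. Not reached: highest tested concentration assigned. At the GI50, growth is halved. TGI: concentration producing complete growth inhibition.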
Tests used:
Assay in all cases: DTP human tumour cell line panel, 48 h
786-0 renal = tested on: 786-0 renal
A549 NSCLC = tested on: A549 NSCLC
ACHN renal = tested on: ACHN renal
BT-549 breast = tested on: BT-549 breast
CAKI-1 renal = tested on: CAKI-1 renal
CCRF-CEM leukemia = tested on: CCRF-CEM leukemia
COLO 205 colon = tested on: COLO 205 colon
DU-145 prostate = tested on: DU-145 prostate
EKVX NSCLC = tested on: EKVX NSCLC
HCC-2998 colon = tested on: HCC-2998 colon
HCT-116 colon = tested on: HCT-116 colon
HCT-15 colon = tested on: HCT-15 colon
HL-60(TB) leukemia = tested on: HL-60(TB) leukemia
HOP-62 NSCLC = tested on: HOP-62 NSCLC
HOP-92 NSCLC = tested on: HOP-92 NSCLC
HS 578T breast = tested on: HS 578T breast
HT29 colon = tested on: HT29 colon
IGROV1 ovarian = tested on: IGROV1 ovarian
K-562 leukemia = tested on: K-562 leukemia
KM12 colon = tested on: KM12 colon
LOX IMVI melanoma = tested on: LOX IMVI melanoma
MALME-3M melanoma = tested on: MALME-3M melanoma
MCF7 breast = tested on: MCF7 breast
MDA-MB-435 = tested on: MDA-MB-435
MOLT-4 leukemia = tested on: MOLT-4 leukemia
NCI-H23 lung = tested on: NCI-H23 lung
NCI-H460 lung = tested on: NCI-H460 lung
NCI-H522 lung = tested on: NCI-H522 lung
NCI/ADR-RES ovarian = tested on: NCI/ADR-RES ovarian
OVCAR-3 ovarian = tested on: OVCAR-3 ovarian
OVCAR-4 ovarian = tested on: OVCAR-4 ovarian
OVCAR-5 ovarian = tested on: OVCAR-5 ovarian
OVCAR-8 ovarian = tested on: OVCAR-8 ovarian
PC-3 prostate = tested on: PC-3 prostate
RPMI-8226 leukemia = tested on: RPMI-8226 leukemia
RXF 393 renal = tested on: RXF 393 renal
SF-268 CNS = tested on: SF-268 CNS
SF-295 CNS = tested on: SF-295 CNS
SF-539 CNS = tested on: SF-539 CNS
SK-MEL-2 melanoma = tested on: SK-MEL-2 melanoma
SK-MEL-28 melanoma = tested on: SK-MEL-28 melanoma
SK-MEL-5 melanoma = tested on: SK-MEL-5 melanoma
SK-OV-3 ovarian = tested on: SK-OV-3 ovarian
SNB-19 CNS = tested on: SNB-19 CNS
SNB-75 CNS = tested on: SNB-75 CNS
SW-620 colon = tested on: SW-620 colon
T-47D breast = tested on: T-47D breast
TK-10 renal = tested on: TK-10 renal
U251 CNS = tested on: U251 CNS
UACC-257 melanoma = tested on: UACC-257 melanoma
UO-31 renal = tested on: UO-31 renal
A498 renal = tested on: A498 renal
M14 melanoma = tested on: M14 melanoma
NCI-H226 lung = tested on: NCI-H226 lung
UACC-62 melanoma = tested on: UACC-62 melanoma

**Q.** What does the source list for N#Cc1c(-c2ccccc2)n([O-])c2ccccc2[n+]1=O?
**A.** GI50 (786-0 renal): 35.7 µM; TGI (786-0 renal): > 100 µM; GI50 (A549 NSCLC): 22 µM; TGI (A549 NSCLC): 50.9 µM; GI50 (ACHN renal): 19.9 µM; TGI (ACHN renal): 37.5 µM; GI50 (BT-549 breast): 25.1 µM; TGI (BT-549 breast): 57.3 µM; GI50 (CAKI-1 renal): 20.1 µM; TGI (CAKI-1 renal): 34.7 µM; GI50 (CCRF-CEM leukemia): 22.2 µM; TGI (CCRF-CEM leukemia): 46.1 µM; GI50 (COLO 205 colon): 35.5 µM; TGI (COLO 205 colon): > 100 µM; GI50 (DU-145 prostate): 22.4 µM; TGI (DU-145 prostate): 51.2 µM; GI50 (EKVX NSCLC): 28.2 µM; TGI (EKVX NSCLC): 58 µM; GI50 (HCC-2998 colon): 17 µM; TGI (HCC-2998 colon): 34 µM; GI50 (HCT-116 colon): 19.5 µM; TGI (HCT-116 colon): 34.8 µM; GI50 (HCT-15 colon): 21.4 µM; TGI (HCT-15 colon): 48.3 µM; GI50 (HL-60(TB) leukemia): 25.2 µM; TGI (HL-60(TB) leukemia): 47.9 µM; GI50 (HOP-62 NSCLC): 20.2 µM; TGI (HOP-62 NSCLC): 38.7 µM; GI50 (HOP-92 NSCLC): 21.8 µM; TGI (HOP-92 NSCLC): 45.4 µM; GI50 (HS 578T breast): 26.8 µM; TGI (HS 578T breast): 70 µM; GI50 (HT29 colon): 38.8 µM; TGI (HT29 colon): > 100 µM; GI50 (IGROV1 ovarian): 36.9 µM; TGI (IGROV1 ovarian): > 100 µM; GI50 (K-562 leukemia): 20.6 µM; TGI (K-562 leukemia): 37.1 µM; GI50 (KM12 colon): 16.2 µM; TGI (KM12 colon): 32.2 µM; GI50 (LOX IMVI melanoma): 18.7 µM; TGI (LOX IMVI melanoma): 35.1 µM; GI50 (MALME-3M melanoma): 21.3 µM; TGI (MALME-3M melanoma): 37.1 µM; GI50 (MCF7 breast): 33.2 µM; TGI (MCF7 breast): > 100 µM; GI50 (MDA-MB-435): 19.7 µM; TGI (MDA-MB-435): 36.3 µM; GI50 (MOLT-4 leukemia): 10.2 µM; TGI (MOLT-4 leukemia): 27.2 µM; GI50 (NCI-H23 lung): 20.3 µM; TGI (NCI-H23 lung): 40.3 µM; GI50 (NCI-H460 lung): 20.7 µM; TGI (NCI-H460 lung): 45.9 µM; GI50 (NCI-H522 lung): 26.9 µM; TGI (NCI-H522 lung): 75.1 µM; GI50 (NCI/ADR-RES ovarian): 21.1 µM; TGI (NCI/ADR-RES ovarian): 44.8 µM; GI50 (OVCAR-3 ovarian): 22.3 µM; TGI (OVCAR-3 ovarian): 42.9 µM; GI50 (OVCAR-4 ovarian): 28.8 µM; TGI (OVCAR-4 ovarian): 81.8 µM; GI50 (OVCAR-5 ovarian): 28.1 µM; TGI (OVCAR-5 ovarian): 74.2 µM; GI50 (OVCAR-8 ovarian): 32.5 µM; TGI (OVCAR-8 ovarian): 91.3 µM; GI50 (PC-3 prostate): 26.4 µM; TGI (PC-3 prostate): 79.8 µM; GI50 (RPMI-8226 leukemia): 21.1 µM; TGI (RPMI-8226 leukemia): 42.2 µM; GI50 (RXF 393 renal): 42.8 µM; TGI (RXF 393 renal): > 100 µM; GI50 (SF-268 CNS): 24.8 µM; TGI (SF-268 CNS): 63.9 µM; GI50 (SF-295 CNS): 24.4 µM; TGI (SF-295 CNS): 56.4 µM; GI50 (SF-539 CNS): 32.1 µM; TGI (SF-539 CNS): 60.8 µM; GI50 (SK-MEL-2 melanoma): 62.6 µM; TGI (SK-MEL-2 melanoma): > 100 µM; GI50 (SK-MEL-28 melanoma): 65.7 µM; TGI (SK-MEL-28 melanoma): > 100 µM; GI50 (SK-MEL-5 melanoma): 20.1 µM; TGI (SK-MEL-5 melanoma): 38.5 µM; GI50 (SK-OV-3 ovarian): 51.7 µM; TGI (SK-OV-3 ovarian): > 100 µM; GI50 (SNB-19 CNS): 67.1 µM; TGI (SNB-19 CNS): > 100 µM; GI50 (SNB-75 CNS): 41.1 µM; TGI (SNB-75 CNS): > 100 µM; GI50 (SW-620 colon): 35.3 µM; TGI (SW-620 colon): > 100 µM; GI50 (T-47D breast): 30.1 µM; TGI (T-47D breast): 83.7 µM; GI50 (TK-10 renal): 29.4 µM; TGI (TK-10 renal): 68.4 µM; GI50 (U251 CNS): 24.7 µM; TGI (U251 CNS): 60.7 µM; GI50 (UACC-257 melanoma): 21.4 µM; TGI (UACC-257 melanoma): 40.1 µM; GI50 (UO-31 renal): 33.9 µM; TGI (UO-31 renal): > 100 µM

**Q.** For O=C(CSCC(=O)N/N=C/c1cccc(C(F)(F)F)c1)N/N=C/c1cccc(C(F)(F)F)c1, which TGI (A498 renal) is on record?
**A.** > 100 µM

**Q.** What about the TGI (ACHN renal) of the same molecule?
**A.** > 100 µM

**Q.** And the TGI (BT-549 breast)?
**A.** > 100 µM

**Q.** And the TGI (CAKI-1 renal)?
**A.** > 100 µM

**Q.** And the TGI (DU-145 prostate)?
**A.** > 100 µM

**Q.** What about the TGI (EKVX NSCLC) of the same molecule?
**A.** > 100 µM

**Q.** And the TGI (HCC-2998 colon)?
**A.** > 100 µM

**Q.** What about the TGI (HCT-15 colon) of the same molecule?
**A.** > 100 µM

**Q.** And the TGI (HL-60(TB) leukemia)?
**A.** > 100 µM

**Q.** What about the TGI (HOP-62 NSCLC) of the same molecule?
**A.** > 100 µM

**Q.** What about the TGI (HOP-92 NSCLC) of the same molecule?
**A.** > 100 µM

**Q.** And the TGI (HS 578T breast)?
**A.** > 100 µM

**Q.** What about the TGI (HT29 colon) of the same molecule?
**A.** > 100 µM

**Q.** What about the TGI (IGROV1 ovarian) of the same molecule?
**A.** > 100 µM

**Q.** What about the TGI (K-562 leukemia) of the same molecule?
**A.** > 100 µM

**Q.** What about the TGI (LOX IMVI melanoma) of the same molecule?
**A.** > 100 µM

**Q.** And the TGI (M14 melanoma)?
**A.** > 100 µM

**Q.** What about the TGI (MALME-3M melanoma) of the same molecule?
**A.** > 100 µM

**Q.** And the TGI (MCF7 breast)?
**A.** > 100 µM

**Q.** What about the TGI (MDA-MB-435) of the same molecule?
**A.** > 100 µM

**Q.** What about the TGI (NCI-H226 lung) of the same molecule?
**A.** > 100 µM

**Q.** What about the TGI (NCI-H23 lung) of the same molecule?
**A.** > 100 µM

**Q.** And the TGI (NCI-H522 lung)?
**A.** > 100 µM

**Q.** And the TGI (NCI/ADR-RES ovarian)?
**A.** > 100 µM

**Q.** And the TGI (OVCAR-5 ovarian)?
**A.** > 100 µM

**Q.** And the TGI (PC-3 prostate)?
**A.** > 100 µM

**Q.** What about the TGI (RXF 393 renal) of the same molecule?
**A.** > 100 µM

**Q.** And the TGI (SF-268 CNS)?
**A.** > 100 µM

**Q.** And the TGI (SF-295 CNS)?
**A.** > 100 µM

**Q.** And the TGI (SF-539 CNS)?
**A.** > 100 µM

**Q.** And the TGI (SK-MEL-2 melanoma)?
**A.** > 100 µM

**Q.** And the TGI (SK-MEL-28 melanoma)?
**A.** > 100 µM

**Q.** And the TGI (SK-MEL-5 melanoma)?
**A.** > 100 µM

**Q.** What about the TGI (SK-OV-3 ovarian) of the same molecule?
**A.** > 100 µM

**Q.** What about the TGI (SNB-19 CNS) of the same molecule?
**A.** > 100 µM

**Q.** And the TGI (SNB-75 CNS)?
**A.** > 100 µM

**Q.** What about the TGI (T-47D breast) of the same molecule?
**A.** > 100 µM

**Q.** And the TGI (TK-10 renal)?
**A.** > 100 µM

**Q.** And the TGI (UACC-257 melanoma)?
**A.** > 100 µM

**Q.** And the TGI (UACC-62 melanoma)?
**A.** > 100 µM

**Q.** What about the TGI (UO-31 renal) of the same molecule?
**A.** > 100 µM
